One series addresses T1, hPRB (Homo sapiens, UniProt P06401).
T1 sequence (P06401 1-933): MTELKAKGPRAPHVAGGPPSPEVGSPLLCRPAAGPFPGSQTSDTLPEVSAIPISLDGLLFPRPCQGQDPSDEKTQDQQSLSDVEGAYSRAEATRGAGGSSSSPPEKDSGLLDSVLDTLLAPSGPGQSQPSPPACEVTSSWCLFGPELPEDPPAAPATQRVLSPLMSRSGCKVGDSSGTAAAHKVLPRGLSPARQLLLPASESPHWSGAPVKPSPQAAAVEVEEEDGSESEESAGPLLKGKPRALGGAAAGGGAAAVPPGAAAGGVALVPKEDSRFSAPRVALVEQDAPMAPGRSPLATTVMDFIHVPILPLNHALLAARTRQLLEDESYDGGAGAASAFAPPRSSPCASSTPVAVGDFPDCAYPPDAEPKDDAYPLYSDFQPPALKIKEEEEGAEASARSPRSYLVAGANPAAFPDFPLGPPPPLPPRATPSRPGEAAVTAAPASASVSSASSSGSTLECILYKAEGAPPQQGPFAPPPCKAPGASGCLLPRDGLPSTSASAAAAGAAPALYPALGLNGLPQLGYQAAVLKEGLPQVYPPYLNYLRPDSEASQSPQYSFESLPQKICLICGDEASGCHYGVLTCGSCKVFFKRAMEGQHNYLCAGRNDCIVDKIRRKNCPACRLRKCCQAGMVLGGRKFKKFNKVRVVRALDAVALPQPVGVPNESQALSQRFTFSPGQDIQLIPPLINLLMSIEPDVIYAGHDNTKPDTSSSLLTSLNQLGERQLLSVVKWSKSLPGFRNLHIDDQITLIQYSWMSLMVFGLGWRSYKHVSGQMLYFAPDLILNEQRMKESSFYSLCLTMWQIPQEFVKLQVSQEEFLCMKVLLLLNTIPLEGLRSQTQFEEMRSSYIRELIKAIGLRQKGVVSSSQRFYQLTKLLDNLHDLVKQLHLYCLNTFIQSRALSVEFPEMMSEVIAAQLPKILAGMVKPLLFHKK
Description: PR transactivation assay (GRE2-Luc) in HEK293T cells transiently expressing hPRB. The class given is cell-based. On the set-up: expressed in transfected cells; host or cells: HEK 293T. The conditions noted are these: series 1 (no C3 substituent), HEK293T, APRn 1 μM, FIG. 1. As to the method: PR Transactivation Assays in HEK 293T.
HEK 293T cells were routinely cultured in a high-glucose DMEM medium (Invitrogene, Cergy Pontoise, France), 20 mM HEPES, 2 mM glutamine, 1× non essential amino acids, 100 U/mL penicillin and 100 μg/mL streptomycin supplemented with 10% foetal calf serum (FCS) in a humidified atmosphere at 37° C. and with 5% CO2. One day before transfection, the cells were seeded at 3×10^6 cells/[…] diameter culture Petri dish and cultured overnight in the same medium. Six hours before transfection, the FCS supplemented medium was replaced by the same medium supplemented with 10% dextran-charcoal treated FCS. Transfections were carried out using the calcium phosphate precipitation method. The calcium phosphate precipitate was prepared with 0.5 μg pchPRB (Petit-Topin, et al Mol Pharmacol, 2009, 75, 1317), 7 μg reporter vector (GRE2-Luc from A. Biola-Vidamment and M. Pallardy) and 1 μg of pcβgal for an internal transfection control, in 1 mL 140 mM NaCl, 0.75 mM Na2HPO4, 25 mM HEPES, 125 mM CaCl2 pH 7.05 and added to the cells 30 minutes later. After 16 h incubation, the transfected cells were washed with PBS containing 2.5 mM EDTA, trypsinized and pooled. The transfected cells were replated in 24-well plates (100.000 transfected cells/well). […] Cells were lysed in 300 μl PBS 1×, 25 mM glycylglycine, 4 mM EDTA, 15% glycerol, 1% triton X-100, 15 mM MgSO4, pH 7.8 supplemented with 2 mM β-mercaptoethanol. The luciferase activities were quantified by using a Mithras LB940 reader microplates (Berthold).
The APRn “agonist efficacy” was determined from the following formula:
Agonist efficacy=[luciferase activity]1/[luciferase activity]2×100
The APRn “antagonist efficacy” was calculated from the following formula:
Antagonist efficacy=100−[luciferase activity]1/[luciferase activity]2×100
The results are the mean±SEM of three to five independent experiments.
All the synthesized APRn were classified in 4 series depending on the nature of their C3 substituent (R1/R′1 groups). The first one (series 1) includes APRn with no C3 substituent (R1═R′1═H) whereas series 2, 3 and 4 are related to APRn bearing a methoxyl (R1═OMe), a hydroxyl (R1═OH) and a fluorine atom (R1═F), respectively. The agonist/antagonist activities of APRn were determined either in human HEK293T cells transiently expressing hPRB or in human MDA-MB-231 iPRAB cells conditionally expressing hPRB, by using a luciferase reporter gene placed under the control of a glucocorticoid response element (GRE2-Luc). The APRn “agonist efficacy” was determined from the luciferase activity measured in the presence of APRn (1 μM). […] The “agonist efficacy” and “antagonist efficacy” are expressed as defined in the biological protocols section.

Another series deals with T2, hAR (Homo sapiens, UniProt P10275).
T2 construct: expressed in transfected cells; host or cells: HEK 293T
T2 sequence (P10275 1-920): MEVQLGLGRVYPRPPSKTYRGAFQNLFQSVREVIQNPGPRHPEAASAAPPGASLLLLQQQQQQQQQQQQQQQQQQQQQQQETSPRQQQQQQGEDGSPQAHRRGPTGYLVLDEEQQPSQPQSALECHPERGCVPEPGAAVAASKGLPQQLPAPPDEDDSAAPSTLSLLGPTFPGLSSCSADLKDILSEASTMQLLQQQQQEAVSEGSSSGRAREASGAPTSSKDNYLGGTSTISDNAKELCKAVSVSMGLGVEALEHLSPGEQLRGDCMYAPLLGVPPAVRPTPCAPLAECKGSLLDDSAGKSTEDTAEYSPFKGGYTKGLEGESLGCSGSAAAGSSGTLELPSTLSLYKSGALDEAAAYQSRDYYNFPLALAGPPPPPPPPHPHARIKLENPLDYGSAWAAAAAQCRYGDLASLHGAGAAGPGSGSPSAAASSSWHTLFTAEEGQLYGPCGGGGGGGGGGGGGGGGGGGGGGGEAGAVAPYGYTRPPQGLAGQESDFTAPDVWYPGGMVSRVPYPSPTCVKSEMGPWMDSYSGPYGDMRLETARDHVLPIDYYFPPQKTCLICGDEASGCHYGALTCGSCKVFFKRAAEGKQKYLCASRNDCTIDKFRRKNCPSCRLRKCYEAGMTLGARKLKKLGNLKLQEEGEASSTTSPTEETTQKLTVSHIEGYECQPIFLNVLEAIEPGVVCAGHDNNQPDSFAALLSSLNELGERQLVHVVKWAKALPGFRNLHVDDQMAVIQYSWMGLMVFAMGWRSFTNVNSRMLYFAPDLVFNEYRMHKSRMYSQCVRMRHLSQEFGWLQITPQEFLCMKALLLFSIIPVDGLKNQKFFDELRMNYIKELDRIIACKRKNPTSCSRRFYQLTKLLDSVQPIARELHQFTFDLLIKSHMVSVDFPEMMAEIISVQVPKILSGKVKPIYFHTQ
Description: APRn selectivity: transactivation in HEK293T cells transiently expressing hAR. It is filed as cell-based. As to conditions: HEK293T, FIG. 11. Here is the method:
Measurement of the APRn Selectivity in HEK 293T.
The HEK-293T cells were cultured and transfected according to the method described above for the PR transactivation assays. The expression vectors pcDNA-hAR, kindly provided by G. A. Coetzee, pchGR (Hellal-Levy, C et al. FEBS Lett 1999, 464, 9), and pchMR (Fagart, J. et al. EMBO J. 1998, 17, 3317) were used for studying the ability of APRn to activate or inactivate the AR, GR and MR, respectively. For each transfection assays, 2 μg of the expression vector was used together with 7 μg of the GRE2-Luc reporter vector. Dihydrotestosterone (DHT), dexamethasone (Dex) and Aldosterone (Aldo) were selected as AR, GR and MR ligands, respectively. They were used at the concentration of 10^−9 M. The APRn agonist and antagonist efficacy for AR, GR and MR were measured as described above for PR. The results are the mean±SEM of three independent experiments.
Transfection assays were performed in HEK 293T cells by using expression vectors for the hAR, hGR and hMR and the GRE2-Luc reporter used for the PR transactivation assays.

What is called melting point is the temperature, or range, at which the solid turns liquid.

Take `CC(=O)O[C@H]1CCC2C3CC=C4C=CCC[C@@H]4C3CC[C@@]21C` (stereo partly drawn) [APR-49, 17β-Acetoxy-19-nor-androst-3,5-diene]: the melting point fell in the range of 94 to 95 °C. Besides, at hPRB, the “hPRB agonist/antagonist character (in words)” value is recorded as “full antagonists”. Moreover, the “agonist efficacy towards hAR (in words)” value at hAR is “high potent hAR agonists”.

The values are drawn from US20130203718A1 (priority 2010, published 2013).
